Measured values as given in US8586603B2, “Aminotetraline derivatives” (priority 2009, dated 2013).

Legend:
[1] = molecular target: T1, porcine cortical p5-HT1a serotonin receptor (Sus scrofa, UniProt A0A4X1UTF5); test: Receptor binding assay, [3H]WAY100635 competition, porcine cortical membranes; details: for Ki: means of 2-8 individual experiments each done as triplicate; for selectivity ratio p5-HT1a: reference receptor of the ratio (=1)
T1 construct: membrane homogenates prepared from porcine striatal or cortical tissue; from tissue; host or cells: porcine cortex
T1 sequence (A0A4X1UTF5 1-422): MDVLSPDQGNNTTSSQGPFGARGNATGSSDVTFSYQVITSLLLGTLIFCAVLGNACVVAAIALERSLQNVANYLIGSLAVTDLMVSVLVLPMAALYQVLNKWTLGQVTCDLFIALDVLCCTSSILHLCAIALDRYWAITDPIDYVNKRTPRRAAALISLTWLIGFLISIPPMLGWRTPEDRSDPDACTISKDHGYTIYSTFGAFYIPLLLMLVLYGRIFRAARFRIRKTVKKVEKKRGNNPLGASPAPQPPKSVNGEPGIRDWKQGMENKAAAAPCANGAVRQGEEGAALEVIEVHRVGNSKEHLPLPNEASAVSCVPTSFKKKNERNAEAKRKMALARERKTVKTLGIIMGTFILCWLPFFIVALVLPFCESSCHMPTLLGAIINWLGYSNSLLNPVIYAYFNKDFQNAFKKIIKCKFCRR

[2] = molecular target: T2, porcine cortical p5-HT2 serotonin receptor (Sus scrofa, UniProt P50129); test: Receptor binding assay, [3H]ketanserin competition, porcine cortical membranes; details: for Ki: means of 2-8 individual experiments each done as triplicate; for selectivity ratio p5-HT2: vs p5-HT1a
T2 construct: membrane homogenates prepared from porcine striatal or cortical tissue; from tissue; host or cells: porcine cortex
T2 sequence (P50129 whole entry): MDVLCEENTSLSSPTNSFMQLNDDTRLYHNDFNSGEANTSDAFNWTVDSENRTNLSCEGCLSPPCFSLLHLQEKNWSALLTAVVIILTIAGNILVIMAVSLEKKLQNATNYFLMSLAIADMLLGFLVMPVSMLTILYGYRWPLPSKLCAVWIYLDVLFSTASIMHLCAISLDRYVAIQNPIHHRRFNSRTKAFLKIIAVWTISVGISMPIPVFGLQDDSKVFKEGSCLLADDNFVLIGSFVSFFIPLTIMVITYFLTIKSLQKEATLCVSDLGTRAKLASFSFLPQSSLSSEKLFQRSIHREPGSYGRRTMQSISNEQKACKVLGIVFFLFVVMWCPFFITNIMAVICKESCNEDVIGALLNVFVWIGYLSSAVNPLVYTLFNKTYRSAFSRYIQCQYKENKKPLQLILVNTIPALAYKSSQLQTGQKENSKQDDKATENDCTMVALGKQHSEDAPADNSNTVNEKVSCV

[3] = molecular target: T3, porcine striatal pD1 dopamine receptor (Sus scrofa, UniProt P50130); test: Receptor binding assay, [3H]SCH 23390 competition, porcine striatal membranes; details: for Ki: means of 2-8 individual experiments each done as triplicate; for selectivity ratio pD1: vs p5-HT1a
T3 construct: membrane homogenates prepared from porcine striatal or cortical tissue; from tissue; host or cells: porcine striatum
T3 sequence (P50130 whole entry): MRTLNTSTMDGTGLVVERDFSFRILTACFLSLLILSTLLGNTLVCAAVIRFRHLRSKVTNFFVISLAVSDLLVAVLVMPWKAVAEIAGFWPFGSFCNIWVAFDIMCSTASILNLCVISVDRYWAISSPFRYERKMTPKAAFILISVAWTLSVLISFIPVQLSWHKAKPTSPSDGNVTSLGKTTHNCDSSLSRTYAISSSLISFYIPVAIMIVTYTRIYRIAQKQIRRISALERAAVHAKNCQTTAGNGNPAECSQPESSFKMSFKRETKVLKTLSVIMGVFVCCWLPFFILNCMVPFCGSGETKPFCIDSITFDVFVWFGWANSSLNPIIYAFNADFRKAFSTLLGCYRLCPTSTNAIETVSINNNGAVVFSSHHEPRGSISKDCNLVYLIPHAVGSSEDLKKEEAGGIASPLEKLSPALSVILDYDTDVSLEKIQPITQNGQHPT

[4] = molecular target: T4, human dopamine receptor subtype hD2long (Homo sapiens, UniProt P14416); test: Receptor binding assay, [3H]spiperone competition, CHO cell membranes; details: for Ki: means of 2-8 individual experiments each done as triplicate; for selectivity ratio hD2long: vs p5-HT1a
T4 construct: expressed in transfected cells; host or cells: CHO
T4 sequence (P14416 whole entry): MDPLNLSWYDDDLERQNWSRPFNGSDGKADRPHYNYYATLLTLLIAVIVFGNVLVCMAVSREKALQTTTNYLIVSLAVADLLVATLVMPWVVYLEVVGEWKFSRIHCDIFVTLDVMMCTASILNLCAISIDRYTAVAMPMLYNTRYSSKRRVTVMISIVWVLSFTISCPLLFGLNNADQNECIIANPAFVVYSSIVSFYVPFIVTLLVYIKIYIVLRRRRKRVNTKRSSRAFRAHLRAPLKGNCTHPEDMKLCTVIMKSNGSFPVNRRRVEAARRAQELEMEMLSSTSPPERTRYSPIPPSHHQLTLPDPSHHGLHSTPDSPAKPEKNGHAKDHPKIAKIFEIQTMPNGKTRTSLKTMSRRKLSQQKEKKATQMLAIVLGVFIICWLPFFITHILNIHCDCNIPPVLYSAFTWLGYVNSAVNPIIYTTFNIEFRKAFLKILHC
Method: (§1) Receptor binding data were determined when performing competition binding assays with membrane preparations of cloned cells (stably transfected Chinese Hamster Ovary cells (CHO)) expressing the human receptors and the following radioligands: [^3H]spiperone at the human dopamine receptor subtypes hD2long, hD2short, D3, and hD4.4.
(§2) Selectivity ratios were calculated by division of the Ki values of the various compounds at the respective receptors through the Ki values at the 5HT1a receptor.

[5] = molecular target: T5, human dopamine receptor subtype hD2short (Homo sapiens, UniProt P14416); test: as above; details: for Ki: means of 2-8 individual experiments each done as triplicate; for selectivity ratio hD2short: vs p5-HT1a
T5 construct: expressed in transfected cells; host or cells: CHO
T5 sequence (P14416 1-414 isoform P14416-2): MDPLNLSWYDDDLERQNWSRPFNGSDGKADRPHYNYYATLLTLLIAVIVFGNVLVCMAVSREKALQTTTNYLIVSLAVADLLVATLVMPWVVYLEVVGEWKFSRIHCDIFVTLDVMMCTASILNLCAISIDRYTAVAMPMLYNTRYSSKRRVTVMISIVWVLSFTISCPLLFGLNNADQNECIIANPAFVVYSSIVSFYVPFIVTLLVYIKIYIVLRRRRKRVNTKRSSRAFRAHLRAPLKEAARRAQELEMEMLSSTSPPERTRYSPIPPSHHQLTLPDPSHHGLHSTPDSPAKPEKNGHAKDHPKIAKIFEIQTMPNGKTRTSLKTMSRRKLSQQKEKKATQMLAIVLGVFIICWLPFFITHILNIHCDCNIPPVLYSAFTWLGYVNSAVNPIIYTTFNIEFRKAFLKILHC
Method: as §1, §2

[6] = molecular target: T6, human dopamine receptor subtype hD3 (Homo sapiens, UniProt P35462); test: as above; details: for Ki: means of 2-8 individual experiments each done as triplicate; for selectivity ratio hD3: vs p5-HT1a
T6 construct: expressed in transfected cells; host or cells: CHO
T6 sequence (P35462 whole entry): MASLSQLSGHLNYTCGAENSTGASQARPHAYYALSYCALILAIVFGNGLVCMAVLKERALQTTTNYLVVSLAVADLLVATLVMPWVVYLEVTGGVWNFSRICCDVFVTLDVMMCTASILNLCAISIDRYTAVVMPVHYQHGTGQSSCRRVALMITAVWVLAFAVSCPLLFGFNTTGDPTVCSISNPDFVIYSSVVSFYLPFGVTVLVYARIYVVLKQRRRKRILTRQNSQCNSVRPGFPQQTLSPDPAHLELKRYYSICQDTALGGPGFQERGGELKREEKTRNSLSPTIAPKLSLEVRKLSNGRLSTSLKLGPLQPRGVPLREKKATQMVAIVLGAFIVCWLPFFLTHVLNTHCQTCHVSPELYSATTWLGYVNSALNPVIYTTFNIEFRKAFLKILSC
Method: as §1, §2

[7] = molecular target: T7, human dopamine receptor subtype hD4.4 (Homo sapiens, UniProt P21917); test: as above; details: for Ki: means of 2-8 individual experiments each done as triplicate; for selectivity ratio hD4.4: vs p5-HT1a
T7 construct: expressed in transfected cells; host or cells: CHO
T7 sequence (P21917 1-419): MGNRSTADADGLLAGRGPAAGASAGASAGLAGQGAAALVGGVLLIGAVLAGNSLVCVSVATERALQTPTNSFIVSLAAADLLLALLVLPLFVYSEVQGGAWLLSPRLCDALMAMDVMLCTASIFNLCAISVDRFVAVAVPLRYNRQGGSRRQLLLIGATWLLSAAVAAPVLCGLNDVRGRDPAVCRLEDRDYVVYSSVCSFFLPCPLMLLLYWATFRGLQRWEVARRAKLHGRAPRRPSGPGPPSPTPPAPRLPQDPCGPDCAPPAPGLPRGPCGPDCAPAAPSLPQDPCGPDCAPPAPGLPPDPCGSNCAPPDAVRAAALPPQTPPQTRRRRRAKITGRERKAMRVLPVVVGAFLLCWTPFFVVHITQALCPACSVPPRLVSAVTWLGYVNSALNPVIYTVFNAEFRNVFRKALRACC
Method: Receptor binding data were determined when performing competition binding assays with membrane preparations of cloned cells (stably transfected Chinese Hamster Ovary cells (CHO)) expressing the human receptors and the following radioligands: [^3H]spiperone at the human dopamine receptor subtypes hD2long, hD2short, D3, and hD4.4. […].
as §2

[8] = molecular target: T8, porcine cortical pα1 adrenergic receptor; test: Receptor binding assay, [3H]prazosin competition, porcine cortical membranes; details: means of 2-8 individual experiments each done as triplicate
T8 construct: Ki pα1; other: means of 2-8 individual experiments each done as triplicate

human 5-HT1a receptor = molecular target: T9, human 5-HT1a receptor (Homo sapiens, UniProt P08908); test: [35S]GTPγS functional assay; assay type: biochemical
T9 construct: expressed in transfected cells
T9 sequence (P08908 1-422): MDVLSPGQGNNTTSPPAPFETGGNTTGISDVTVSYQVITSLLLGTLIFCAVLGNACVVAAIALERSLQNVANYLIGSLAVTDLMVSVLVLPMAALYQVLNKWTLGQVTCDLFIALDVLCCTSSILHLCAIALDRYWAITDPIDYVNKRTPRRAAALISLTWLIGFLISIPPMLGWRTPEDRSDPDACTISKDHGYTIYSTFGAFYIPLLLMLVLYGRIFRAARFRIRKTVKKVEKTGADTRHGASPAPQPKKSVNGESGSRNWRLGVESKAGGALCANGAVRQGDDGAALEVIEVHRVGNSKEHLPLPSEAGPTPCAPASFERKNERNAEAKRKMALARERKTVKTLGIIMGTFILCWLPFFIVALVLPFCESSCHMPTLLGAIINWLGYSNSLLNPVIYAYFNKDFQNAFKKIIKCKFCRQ
Method: Specific binding of [^35S]GTPγS is stimulated by activation of the stably expressed human 5-HT1a receptor in a dose-dependent way by agonists for this GPCR and is determined by measuring the radioactive label of the membrane. Non-linear regression analysis of the resulting dose-response curves yields the EC50 value in [nM] representing the half maximal concentration which is necessary to activate the receptor completely.

[9] = system: porcine cortical pα1 adrenergic receptor; test: Receptor binding assay, [3H]prazosin competition, porcine cortical membranes; details: vs p5-HT1a

| Molecule | Ki [1] [nM] | Ki [2] [µM] | Ki [3] [µM] | Ki [4] [nM] | Ki [5] [nM] | Ki [6] [nM] | Ki [7] [nM] | Ki [8] [nM] | EC50 (human 5-HT1a receptor; mean values of 2-8 individual experiments) [nM] | Emax (human 5-HT1a receptor; read-out: intrinsic activity [% rel. to serotonin]) [%] | selectivity ratio p5-HT1a [1] | selectivity ratio p5-HT2 [2] | selectivity ratio pD1 [3] | selectivity ratio hD2long [4] | selectivity ratio hD2short [5] | selectivity ratio hD3 [6] | selectivity ratio hD4.4 [7] | selectivity ratio pα1 [9] |
| --- | --- | --- | --- | --- | --- | --- | --- | --- | --- | --- | --- | --- | --- | --- | --- | --- | --- | --- |
| CCCN(CCc1cccs1)C1CCc2cccc(OC)c2C1 (centres unmarked) [Compound 2, N-(8-Methoxytetralin-2-yl)-N-propyl-N-[2-(2-thienyl)ethyl]amine] | 2.9 | 12 | 6.7 | 160 | 390 | 57 | 390 | 200 | 6.3 | 91 |  |  |  |  |  |  |  |  |
| CCCN(CCc1cccs1)[C@H]1CCc2cccc(OC)c2C1 [Compound 2b, (S)—N-(8-Methoxytetralin-2-yl)-N-propyl-N-[2-(2-thienyl)ethyl]amine] | 6.7 | 3.9 | 3.3 | 85 | 58 | 32 | 760 | 140 |  |  |  |  |  |  |  |  |  |  |
| CCCN(CCc1ccc(OC)cc1)C1CCc2cccc(OC)c2C1 (centres unmarked) [Compound 6, N-[2-(4-Methoxyphenyl)ethyl]-N-(8-methoxytetralin-2-yl)-N-propylamine] | 5.5 | 4.9 | 9.5 | 340 | 260 | 110 | 470 | 230 |  |  |  |  |  |  |  |  |  |  |
| N-(2-Ferrocenylethyl)-N-(8-hydroxytetralin-2-yl)-N-propylamine [Compound 11] | 0.32 | 0.93 | 3.1 | 34 | 16 | 52 | 7.4 | 170 |  |  |  |  |  |  |  |  |  |  |
| CCCN(CCc1cccs1)[C@H]1CCc2cccc(O)c2C1 [Compound 1b, (S)—N-(8-Hydroxytetralin-2-yl)-N-propyl-N-[2-(2-thienyl)ethyl]amine] | 1.8 | 5.5 | 5.4 | 520 | 290 | 49 | 690 | 200 |  |  | 1 | 3 100 | 3 000 | 290 | 160 | 26 | 380 | 110 |
| CCCN(CCc1ccc(O)cc1)C1CCc2cccc(O)c2C1 (centres unmarked) [Compound 5, N-[2-(4-Hydroxyphenyl)ethyl]-N-(8-hydroxytetralin-2-yl)-N-propylamine] | 1.1 | 6.6 | 6.2 | 340 | 86 | 95 | 570 | 87 |  |  | 1 | 6 000 | 5 600 | 310 | 80 | 86 | 520 | 79 |
| CCCN(CCc1cc2ccc1CCc1ccc(cc1)CC2)C1CCc2cccc(O)c2C1 (centres unmarked) [Compound 13, N-(8-Hydroxytetralin-2-yl)-N-[2-([2.2]paracyclophan-4-yl)ethyl]-N-propylamine] | 15 | 2.1 | 3.5 | 990 | 640 | 170 | 87 | 930 |  |  | 1 | 140 | 230 | 66 | 43 | 11 | 5.8 | 62 |
| CCCN(CCc1ccccc1)C1CCc2cccc(O)c2C1 (centres unmarked) [Compound 3, N-(8-Hydroxytetralin-2-yl)-N-(2-phenylethyl)-N-propylamine] | 0.62 | 5.8 | 9.1 | 760 | 170 | 190 | 590 | 140 |  |  | 1 | 9 400 | 15 000 | 1 200 | 270 | 310 | 950 | 230 |
| CCCN(CCC)C1CCc2cccc(O)c2C1 (stereo not drawn) [R-(+)-8-OH-DPAT, reference compound] | 1.2 | 2.1 | 3.3 |  |  |  | 210 | 250 |  |  |  |  |  |  |  |  |  |  |
| CCCN(CCc1cc(C)ccc1C)C1CCc2cccc(OC)c2C1 (centres unmarked) [Compound 8, N-(8-Methoxytetralin-2-yl)-N-propyl-N-[2-(2,5-dimethyl)phenylethyl]amine] | 24 | 4.4 | 6.2 | 300 | 180 | 110 | 940 | 510 |  |  |  |  |  |  |  |  |  |  |
| N-(2-Ferrocenylethyl)-N-(8-methoxytetralin-2-yl)-N-propylamine [Compound 12] | 1.8 | 2.2 | 2.6 | 38 | 17 | 11 | 3.5 | 92 |  |  |  |  |  |  |  |  |  |  |
